Laboratory results published in ChEMBL document CHEMBL1126164, “SR 46559 A and related aminopyridazines are potent muscarinic agonists with no cholinergic syndrome” (Bioorg Med Chem Lett, 1992).
Substitutions are numbered along the chain they refer to. Active and inactive are the calls of the source. The calls are words filed in the database; no cut-off is given here.

Key:
[1] = target: T1, Muscarinic acetylcholine receptor M1 (Rattus norvegicus, UniProt P08482); test: Displacement of [3H]pirenzepine from cerebral Muscarinic acetylcholine receptor M1
T1 sequence (P08482 whole entry): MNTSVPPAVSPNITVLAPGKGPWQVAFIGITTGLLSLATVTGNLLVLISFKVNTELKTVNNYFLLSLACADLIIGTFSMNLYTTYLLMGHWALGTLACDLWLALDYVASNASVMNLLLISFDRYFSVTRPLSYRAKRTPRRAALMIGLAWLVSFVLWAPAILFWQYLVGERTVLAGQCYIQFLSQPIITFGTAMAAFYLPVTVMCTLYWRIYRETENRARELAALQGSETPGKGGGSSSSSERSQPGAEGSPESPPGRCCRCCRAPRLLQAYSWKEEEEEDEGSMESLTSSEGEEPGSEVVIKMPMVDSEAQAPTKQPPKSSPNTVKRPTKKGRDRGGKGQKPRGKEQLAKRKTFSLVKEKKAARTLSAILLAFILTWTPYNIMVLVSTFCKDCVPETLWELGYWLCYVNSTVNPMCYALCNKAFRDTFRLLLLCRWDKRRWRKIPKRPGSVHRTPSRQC

[2] = system: Mus musculus; test: Percent inhibition of the number of pirenzepine-induced rotations in mice, on oral administration (3 mg/kg) 4 hr before the test; Inactive; type: functional, organism-based
[3] = system: Mus musculus; test: Percent inhibition of the number of pirenzepine-induced rotations in mice, on oral administration(0.3 mg/kg) 4 hr before the test; Inactive; type: functional, organism-based
[4] = system: Mus musculus; test: Percent inhibition of the number of pirenzepine-induced rotations in mice, on oral administration (0.3 mg/kg) 4 hr before the test; type: functional
[5] = system: Mus musculus; test: Percent inhibition of the number of pirenzepine-induced rotations in mice, on oral administration (3 mg/kg) 4 hr before the test; type: functional
[6] = system: Mus musculus; test: Compound was evaluated for toxicity up to 300 mg/kg; NT - No Toxicity; type: functional, organism-based; design: dose 300 mg/kg
[7] = species: Mus musculus; test: Effective dose required to antagonize pirenzepine-induced deficit in passive avoidance learning.; type: functional
[8] = species: Mus musculus; test: Compound was tested for the ability to stimulate diacylglycerol formation antagonized by atropine.; type: functional, organism-based
[9] = species: Rattus norvegicus; test: Compound was tested for inhibitory concentration required for the K+ release of [3H]- GABA from rat striatal slices and reduced at 0.5 and 1 uM; type: functional
[10] = system: Rattus norvegicus; test: Effective dose required to potentiate haloperidol induced catalepsy in rats (p.o.); type: functional; settings: po
[11] = species: Mus musculus; test: Effective dose required to antagonize scopolamine-induced deficit in passive avoidance learning.; type: functional
[12] = species: Mus musculus; test: Effective dose required to antagonize rotations induced in mice by intrastriatal injection of pirenzepine.; type: functional
[13] = target: T2, Muscarinic acetylcholine receptor M1 (Homo sapiens, UniProt P11229); test: Compound was tested for its affinity for muscarinic M1 receptor
T2 sequence (P11229 whole entry): T1 sequence (P08482 whole entry) with V5A, S254T, S309P, K320R, G337A, V413I

[14] = (§1) Lethal dose in mice after oral administration; type: toxicity, organism-based; settings: mouse, in vivo
[15] = system: Mus musculus; test: Percent inhibition of the number of pirenzepine-induced rotations in mice, on orally administration (0.3 mg/kg) 4 hr before the test; type: functional
[16] = as §1; type: toxicity; settings: mouse, in vivo

| SMILES | IC50 [1] [nM] | other results |
| --- | --- | --- |
| c1ccc(-c2cc(Cc3ccc4ccccc4c3)c(NCCN3CCOCC3)nn2)cc1 | 16000 | – |
| Cc1cc(-c2ccccc2)nnc1NCCN1CCOCC1 [MINAPRINE] | 17000 | – |
| CCN1CCCC1CNc1cc(-c2ccccc2)c(C)nn1 (configuration not stated) | 20 | inhibition [2]: inactive; inhibition [3]: inactive |
| c1ccc2c(c1)CCCc1cc(NCCCN3CCOCC3)nnc1-2 | 2000 | – |
| Cc1c(NCCN2CCOCC2)nnc(-c2ccccc2)c1C | 700 | – |
| CCN1CCCC1CNc1cc(C)c(-c2ccccc2O)nn1 (configuration not stated) | 8 | – |
| CCN(CC)C(C)(C)CNc1cc(C)c(-c2ccccc2O)nn1 | 240 | – |
| CCCc1cc(NC2CCCN2CC)nnc1-c1ccccc1 (racemic) | 30 | – |
| CCN(CC)C(C)(C)CNc1cc(-c2ccccc2)c(C)nn1 | 180 | Inhibition [4]: 65%; Inhibition [5]: 85% |
| O=C(O)c1cc(-c2ccccc2)nnc1NCCN1CCOCC1 | > 100000 | – |
| Cc1cc(-c2ccccc2)nnc1NCCN1CCOCC1=O | > 100000 | – |
| c1ccc(-c2ccc(NCCN3CCOCC3)nn2)cc1 | 12000 | – |
| CCN(CC)C(C)(C)CNc1cc(C)c(-c2ccccc2)nn1 | 2300 | – |
| CCN(CC)C(C)(C)CNc1cc(C2CC2)c(-c2ccccc2)nn1 | 400 | – |
| CCCc1cc(NCC(C)(C)N(CC)CC)nnc1-c1ccccc1O | 130 | – |
| Cc1cc(C2CCCCC2)nnc1NCCN1CCOCC1 | 6000 | – |
| CCCc1nnc(NCC(C)(C)N(CC)CC)cc1-c1ccccc1 | 50 | – |
| c1ccc(-c2cc(NCCN3CCOCC3)nnc2-c2ccccc2)cc1 | 170 | – |
| CCCc1cc(NCC(C)(C)N(CC)CC)nnc1-c1ccccc1 | 110 | Inhibition [4]: 51%; Activity [6]: inactive; ED50 [7]: 0.027 mg/kg; IC50 [8]: 50000 nM; IC50 [9]: 10000 nM; Inhibition [5]: 78%; ED50 [10]: 0.1 mg/kg; ED50 [11]: 0.25 mg/kg; ED50 [12]: 0.12 mg/kg; Ki [13]: 112 nM |
| c1ccc(-c2cc(-c3ccccc3)c(NCCN3CCOCC3)nn2)cc1 | 600 | – |

| SMILES | IC50 [1] [nM] | other results |
| --- | --- | --- |
| CCN(CC)C(C)(C)CNc1cc(-c2ccccc2)c(CC(C)C)nn1 | 20 | LD50 [14]: 250 mg/kg |
| N#Cc1cc(-c2ccccc2)nnc1NCCN1CCOCC1 [BAZINAPRINE] | 60000 | – |
| CCCc1cc(NCCN2CCOCC2)nnc1-c1ccccc1 | 1600 | – |
| CCN(CC)CCNc1nnc(-c2ccccc2)cc1C | 240 | – |
| Cc1cc(-c2ccccc2)nnc1NCCN(C)C | 230 | – |
| CCN1CCCC1CNc1cc(C)c(-c2ccccc2)nn1 (configuration not stated) | 260 | – |
| c1ccc(Cc2cc(-c3ccccc3)nnc2NCCN2CCOCC2)cc1 | 4600 | – |
| Cc1cc(NCCN(C)C)ccc1-c1ccccc1 | 140 | – |
| CCCc1cc(NC2CCCN2CC)nnc1-c1ccccc1 (single isomer, unassigned; (-)) | 10 | – |
| Cc1cc(-c2ccc3ccccc3c2)nnc1NCCN1CCOCC1 | 7500 | – |
| CCCc1cc(NC2CCCN2CC)nnc1-c1ccccc1 (single isomer, unassigned; (+)) | 60 | – |
| CCN(CC)C(C)(C)CNc1cc(-c2ccccc2)c(-c2ccccc2)nn1 | 40 | Inhibition [15]: 87%; LD50 [16]: 250 mg/kg; Inhibition [5]: 113% |
| c1ccc2c(c1)CCCc1cc(NCCN3CCOCC3)nnc1-2 | 370 | – |
| CCN1CCCC1CNc1nnc(-c2ccccc2)cc1C (configuration not stated) | 800 | – |
| O=Cc1cc(-c2ccccc2)nnc1NCCN1CCOCC1 | > 100000 | – |
| CCc1cc(-c2ccccc2)nnc1NCCN1CCOCC1 | 1600 | – |
| Cc1cc(NCCCN(C)C)ccc1-c1ccccc1 | 500 | – |
| Cc1cc(-c2cccs2)nnc1NCCN1CCOCC1 | 4000 | – |
| Cc1cc(-c2ccccc2)nnc1NCCN1CCC(O)CC1 | > 100000 | – |
